Values after ≈ are worked out from the molar mass of the structure shown.
What was measured:
E. coli DNA gyrase = E. coli DNA gyrase (Escherichia coli, UniProt P0AES4+P0AES6); assay: E. coli DNA gyrase supercoiling assay; assay type: biochemical; settings: for E. coli DNA gyrase IC50: supercoiling assay, relaxed plasmid DNA
E. coli topoisomerase I = E. coli topoisomerase I (Escherichia coli, UniProt P06612); assay: E. coli topoisomerase I relaxation inhibition assay with supercoiled plasmid DNA; assay type: biochemical; settings: relaxation of supercoiled pBAD/Thio plasmid, 30 min at 37°C
Sequence of E. coli topoisomerase I (P06612 whole entry): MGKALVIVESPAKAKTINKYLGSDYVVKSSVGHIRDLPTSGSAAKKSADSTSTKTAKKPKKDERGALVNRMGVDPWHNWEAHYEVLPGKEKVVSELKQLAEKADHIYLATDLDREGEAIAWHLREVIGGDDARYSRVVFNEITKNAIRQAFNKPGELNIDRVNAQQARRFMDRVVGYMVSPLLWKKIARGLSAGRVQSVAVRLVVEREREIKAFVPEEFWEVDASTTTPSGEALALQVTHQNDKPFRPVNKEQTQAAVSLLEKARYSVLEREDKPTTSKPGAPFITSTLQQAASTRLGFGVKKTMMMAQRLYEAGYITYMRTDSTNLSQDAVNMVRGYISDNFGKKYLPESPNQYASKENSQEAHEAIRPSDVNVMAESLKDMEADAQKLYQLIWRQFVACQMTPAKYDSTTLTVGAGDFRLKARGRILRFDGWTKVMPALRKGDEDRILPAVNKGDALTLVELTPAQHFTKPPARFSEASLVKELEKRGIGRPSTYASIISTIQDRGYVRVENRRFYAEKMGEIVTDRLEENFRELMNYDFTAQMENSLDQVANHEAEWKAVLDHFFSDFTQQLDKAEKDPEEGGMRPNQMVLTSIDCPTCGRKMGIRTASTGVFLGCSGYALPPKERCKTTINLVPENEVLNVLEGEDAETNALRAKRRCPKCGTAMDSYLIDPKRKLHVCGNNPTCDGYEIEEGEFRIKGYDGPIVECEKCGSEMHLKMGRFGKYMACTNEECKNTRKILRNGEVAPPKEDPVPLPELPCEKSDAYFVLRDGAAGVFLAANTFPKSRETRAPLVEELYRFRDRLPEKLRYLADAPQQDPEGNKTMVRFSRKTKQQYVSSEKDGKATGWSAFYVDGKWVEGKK

[1] = tested on: membrane permeable strain (BAS3023) of Escherichia coli; assay: Antibacterial MIC testing, microdilution, E. coli; assay type: cell-based; settings: 24 h; for E. coli MIC: membrane permeable strain of E. coli, cation-adjusted Mueller-Hinton Broth, 37°C
[2] = tested on: membrane permeable strain (BAS3023) of Escherichia coli; settings: cited from earlier work
Bacillus subtilis [3] = settings: cited from earlier work
Bacillus subtilis [4] = assay: Antibacterial MIC testing, microdilution, B. subtilis; assay type: cell-based; settings: for MIC: Bacillus subtilis, read-out: MIC antibacterial activity; for B. subtilis MIC: cation-adjusted Mueller-Hinton Broth, 24 h, 37°C
S. rolfsii = settings: cited from earlier work

Sequence of E. coli DNA gyrase (P0AES4 whole entry, one chain of several): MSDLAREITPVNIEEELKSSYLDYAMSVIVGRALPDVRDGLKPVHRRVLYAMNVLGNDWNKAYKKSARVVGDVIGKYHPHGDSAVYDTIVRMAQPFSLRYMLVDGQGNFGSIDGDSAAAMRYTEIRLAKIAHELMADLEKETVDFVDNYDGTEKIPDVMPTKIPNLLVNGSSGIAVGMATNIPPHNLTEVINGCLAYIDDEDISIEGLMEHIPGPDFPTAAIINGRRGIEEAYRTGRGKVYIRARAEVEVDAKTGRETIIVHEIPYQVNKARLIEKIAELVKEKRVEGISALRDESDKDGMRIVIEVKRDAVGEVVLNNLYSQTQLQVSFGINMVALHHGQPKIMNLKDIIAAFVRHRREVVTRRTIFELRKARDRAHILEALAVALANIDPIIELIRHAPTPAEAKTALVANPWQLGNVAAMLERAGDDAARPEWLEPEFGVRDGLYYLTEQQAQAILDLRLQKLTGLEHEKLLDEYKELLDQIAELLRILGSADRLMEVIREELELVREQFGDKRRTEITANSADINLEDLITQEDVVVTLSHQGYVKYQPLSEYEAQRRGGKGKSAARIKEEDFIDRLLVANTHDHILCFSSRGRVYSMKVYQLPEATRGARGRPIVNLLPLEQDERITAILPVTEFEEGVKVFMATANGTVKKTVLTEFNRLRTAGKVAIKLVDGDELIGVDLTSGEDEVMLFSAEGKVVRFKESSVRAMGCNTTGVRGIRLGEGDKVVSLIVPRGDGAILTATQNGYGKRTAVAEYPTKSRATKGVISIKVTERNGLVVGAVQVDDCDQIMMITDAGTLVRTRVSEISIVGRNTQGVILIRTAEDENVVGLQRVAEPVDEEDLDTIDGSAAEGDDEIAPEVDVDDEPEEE

Row | SMILES | IC50 (E. coli DNA gyrase) [µM] | E. coli DNA gyrase IC50 (E. coli DNA gyrase) | E. coli Topo I inhibition IC50 (E. coli topoisomerase I) | E. coli MIC [1] | other results
1 | CCCCCc1cc(O)cc(O)c1C(=O)Oc1cc(CCCCC)c2c(c1)OC(C)(C)OC2=O [Compound 14] | > 1000 | inactive | inactive | – | –
2 | CCCCCc1cc(OC(=O)c2c(O)cc(O)cc2CCCCC)cc(O)c1C(=O)O [Anziaic acid (synthetic sample), anziaic acid] | – | – | – | 100 µM | MIC against membrane permeable strain (BAS3023) of Escherichia coli [2]: 12 µg/mL; MIC against Bacillus subtilis (Bacillus subtilis [3]): 6 µg/mL (≈ 13.9 µM)
3 | O=C(O)c1cc(/N=N/c2cccc([N+](=O)[O-])c2)ccc1O [Compound 19] | – | – | – | – | MIC (Bacillus subtilis [4]): 200 to 400 µM (≈ 57.4 to 115 µg/mL)
4 | Nc1ccc(/N=N/c2ccccc2)c(N)c1 [Compound 18] | – | – | – | – | MIC ([1]; Escherichia coli, read-out: E. coli MIC): 200 to 400 µM (≈ 42.5 to 84.9 µg/mL); MIC (Bacillus subtilis [4]): 200 to 400 µM (≈ 42.5 to 84.9 µg/mL)
5 | O=C(O)c1ccc(OC(=O)c2ccc(O)cc2O)cc1O [Compound 11c] | > 1000 | complete loss | complete loss | complete loss | B. subtilis MIC (Bacillus subtilis [4]): complete loss
6 | CCCCCc1cc(O)cc(O)c1C(=O)O [Compound 4, 2,4-dihydroxy-6-pentylbenzoic acid] | > 1000 | no inhibitory activity | – | no inhibitory activity | B. subtilis MIC (Bacillus subtilis [4]): no inhibitory activity
7 | COC(=O)c1c(C)cc(OC(=O)c2c(C)cc(O)c(C=O)c2O)c(C)c1O [atranorin] | – | – | – | – | ED50 antifungal activity against S. rolfsii (S. rolfsii): 39.70 µg/mL (≈ 106 µM)
8 | CCCCCc1cc(OC(=O)c2c(CCCCC)cc(OCc3ccccc3)cc2OCc2ccccc2)cc(O)c1C(=O)OCc1ccccc1 [Compound 6, benzyl 4-((2,4-bis(benzyloxy)-6-pentylbenzoyl)oxy)-2-hydroxy-6-pentylbenzoate] | > 1000 | inactive | inactive | – | –
9 | O=C(OCc1ccccc1)c1ccc(OC(=O)c2ccc(OCc3ccccc3)cc2OCc2ccccc2)cc1O [Compound 10c] | > 1000 | – | – | – | –

Reference: paper PMC3867937 (MedChemComm, 2013)
